These are literature values, as cited in patent US20230346789A1, “METHODS OF TREATING ENHANCING BRAIN TUMORS USING COMBINATION THERAPY” (MSD International GmbH, priority 2022, published 2023).

Data set [1] deals with Recurrent or Progressive Glioma. As to conditions: monotherapy.

Read-outs that look alike come from different tables or passages of the source.

For the molecule “pembrolizumab: humanized immunoglobulin G4 (IgG4) monoclonal antibody blocking the programmed death receptor-1 (PD1)”, the preclinical safety profile result is “acceptable”.

Turning to `C[C@@H](Nc1nc(N[C@H](C)C(F)(F)F)nc(-c2cccc(Cl)n2)n1)C(F)(F)F` [vorasidenib, 6-(6-chloropyridin-2-yl)-N^2,N^4-bis((R)-1,1,1-trifluoropropan-2-yl)-1,3,5-triazine-2,4-diamine], the clinical efficacy result in data set [1] (patients with non-enhancing gliomas) was “clinical activity and prolonged disease control”; in data set [1] (patients with recurrent enhancing gliomas), “only limited efficacy”.
